This is an account of results in ChEMBL document CHEMBL3351330, “Design, synthesis, and in vitro evaluation of an activity-based protein profiling (ABPP) probe targeting agmatine deiminases” (Bioorg Med Chem, 2014).

Active and inactive are the calls of the source. No cut-off for these calls is given here.

Assay [1] addresses T1, Putative agmatine deiminase (Streptococcus mutans serotype c (strain ATCC 700610 / UA159), UniProt Q8DW17).
T1 sequence (Q8DW17 whole entry): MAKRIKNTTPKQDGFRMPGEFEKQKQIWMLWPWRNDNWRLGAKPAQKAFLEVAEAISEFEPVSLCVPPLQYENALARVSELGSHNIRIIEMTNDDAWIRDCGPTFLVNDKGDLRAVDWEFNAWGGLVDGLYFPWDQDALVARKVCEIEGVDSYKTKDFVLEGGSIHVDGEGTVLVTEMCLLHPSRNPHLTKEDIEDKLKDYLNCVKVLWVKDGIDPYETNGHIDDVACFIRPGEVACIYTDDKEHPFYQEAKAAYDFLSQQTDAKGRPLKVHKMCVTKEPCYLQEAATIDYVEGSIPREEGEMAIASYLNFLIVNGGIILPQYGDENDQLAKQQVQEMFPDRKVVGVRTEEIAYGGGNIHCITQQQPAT
Kind of assay: Inhibition of Streptococcus mutans agmatine deiminase expressed in Escherichia coli pre-incubated for 15 mins before agmatine substrate addition.

In assay [2] the target is T2, Putative agmatine deiminase (Streptococcus mutans serotype c (strain ATCC 700610 / UA159)) (UniProt Q8DW17).
T2 sequence (whole entry): T1 sequence (Q8DW17 whole entry)
Briefly: Binding affinity to Streptococcus mutans agmatine deiminase expressed in Escherichia coli assessed as enzyme photo labeling at 2 to 10 uM by coomassie blue staining based gel electrophoresis method.

Assay [3] has as its target T2, Putative agmatine deiminase (Streptococcus mutans serotype c (strain ATCC 700610 / UA159)). Kind of assay: Binding affinity to Streptococcus mutans agmatine deiminase expressed in Escherichia coli assessed as enzyme photo labeling at 2 to 10 uM after 45 mins by coomassie blue staining based SDS-PAGE method.
For assay [4] the target is unchanged. Briefly: Binding affinity to Streptococcus mutans agmatine deiminase expressed in Escherichia coli assessed as enzyme photo labeling at 10 uM pre-treated with 10 uM ABCA for 45 mins by coomassie blue staining based gel electrophoresis method.
For assay [5] the target is unchanged. Kind of assay: Binding affinity to Streptococcus mutans agmatine deiminase expressed in Escherichia coli assessed as enzyme photo labeling at 10 uM after 45 mins by coomassie blue staining based gel electrophoresis method.
Assay [6] has the same target. Kind of assay: Binding affinity to Streptococcus mutans agmatine deiminase expressed in Escherichia coli assessed as enzyme level detected by compound at 10 uM after 45 mins by coomassie blue staining based gel electrophoresis method.
For assay [7] the target is unchanged. Kind of assay: Binding affinity to Streptococcus mutans agmatine deiminase in presence of Escherichia coli cell lysates assessed as enzyme photo labeling at 10 uM after 45 mins by coomassie blue staining based gel electrophoresis method.
Assay [8] has the same target. Briefly: Binding affinity to Streptococcus mutans agmatine deiminase in presence of Escherichia coli cell lysates assessed as enzyme level detected by compound at 10 uM after 45 mins by coomassie blue staining based gel electrophoresis method.

In general, IC50 refers to the midpoint of a concentration-inhibition curve. A high value points to lower potency. The compound `N=C(CCl)NCCCCN` yielded an IC50 in assay [1] of 0.26 µM.

Turning to `N=C(CCl)NCCCCNCCCCCNC(=S)Nc1ccc(-c2c3ccc(=O)cc-3oc3cc(O)ccc23)c(C(=O)O)c1`, the result in assay [2], in assay [3], in assay [5] and in assay [7] was Active. For the same compound, the result in assay [4] was inactive. Also, the Activity in assay [6] came out at 1 pmol; in assay [8] it was 0.5 pmol. Inhibition in assay [1] was half-maximal at 10.6 µM (IC50).
